Test results as given in PubChem BioAssay AID588390 (Sanford-Burnham Center for Chemical Genomics, 2011).
The source made the active and inactive calls. How the calls were made is not given here.

Target: Ubiquitin-conjugating enzyme E2 N (Homo sapiens) (UniProt P61088)
Experiment: UBC13 polyubiquitination inhibitor analogues, SAR follow-up, biochemical, TR-FRET, set 2 (AID 588390)

Chain of Ubiquitin-conjugating enzyme E2 N (Homo sapiens) (P61088 whole entry, looked up): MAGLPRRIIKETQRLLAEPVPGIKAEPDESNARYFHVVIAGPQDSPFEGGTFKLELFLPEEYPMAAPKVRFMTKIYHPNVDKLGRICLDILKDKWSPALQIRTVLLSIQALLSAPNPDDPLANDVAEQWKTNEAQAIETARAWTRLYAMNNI

SMILES | IC50
Cc1nc2ccccc2n1C1CCN(CC(=O)Nc2ccccc2Oc2ccccc2)CC1 | > 100 µM (inactive)
CC1(C)Cc2c(sc(NC(=O)C(=O)NCC3CCCO3)c2C(N)=O)CO1 (configuration not stated) | 0.63 µM
O=C(CN1CCC(n2c(C(F)(F)F)nc3cc(F)ccc32)CC1)Nc1ccc2c(c1)OCO2 | > 100 µM (inactive)
O=C(C1CCN(c2ncnc3c2nc2n3CCCCC2)CC1)N1CCN(Cc2ccccc2)CC1 | 2.75 µM
O=C(CN1CCC(n2cnc3cc(F)ccc32)CC1)Nc1cccc(C(F)(F)F)c1 | > 100 µM (inactive)
O=C(C1CCN(c2ncnc3c2nc2n3CCCCC2)CC1)N1CCN(c2ccc(F)cc2)CC1 | inactive
CC1(C)Cc2c(sc(NC(=O)C(=O)NCC3CCCO3)c2C(=O)O)CO1 (configuration not stated) | inactive
COc1ccccc1N1CCN(CCCNC(=O)C2CCCN(c3ncnc4c3nc3n4CCCCC3)C2)CC1 (configuration not stated) | inactive
O=C(c1ccco1)N1CCN(C(=O)C2CCN(c3ncnc4c3nc3n4CCCCC3)CC2)CC1 | > 100 µM (inactive)
CCOc1ccc(NC(=O)CN2CCC(n3cnc4cc(F)ccc43)CC2)cc1 | > 100 µM (inactive)
O=C(C1CCN(c2ncnc3c2nc2n3CCCCC2)CC1)N1CCN(c2ncccn2)CC1 | > 100 µM (inactive)
O=C(NCCCN1CCN(c2ccc(F)cc2)CC1)C1CCCN(c2ncnc3c2nc2n3CCCCC2)C1 (configuration not stated) | 2.91 µM
COc1ccc(OC)c(NC(=O)CN2CCC(n3cnc4cc(F)ccc43)CC2)c1 | inactive
Cc1cccc(NC(=O)CN2CCC(n3cnc4cc(F)ccc43)CC2)c1C | > 100 µM (inactive)
O=C(CN1CCC(n2cnc3cc(F)ccc32)CC1)Nc1ccccc1Br | inactive
O=C(C1CCN(c2ncnc3c2nc2n3CCCCC2)CC1)N1CCN(c2ccccn2)CC1 | inactive
O=C(CN1CCC(n2cnc3cc(C(F)(F)F)ccc32)CC1)Nc1ccc2c(c1)OCCO2 | > 100 µM (inactive)
Cc1cccc(N2CCN(CCCNC(=O)C3CCCN(c4ncnc5c4nc4n5CCCCC4)C3)CC2C)c1 (configuration not stated) | inactive
Cc1nc2cc(F)ccc2n1C1CCN(CC(=O)Nc2ccccc2)CC1 | > 100 µM (inactive)
O=C(NCCCN1CCN(c2ccccc2)CC1)C1CCCN(c2ncnc3c2nc2n3CCCCC2)C1 (configuration not stated) | 3.3 µM
Cc1ccc(C)c(N2CCN(CCCNC(=O)C3CCCN(c4ncnc5c4nc4n5CCCCC4)C3)CC2)c1 (configuration not stated) | 9.81 µM
CC1(C)Cc2c(sc(NC(=O)C(=O)N3CCCC3)c2C(N)=O)CO1 | 0.58 µM
COC(=O)c1c(NC(=O)C(=O)NCC2CCCO2)sc2c1CC(C)(C)OC2 (configuration not stated) | 4.25 µM
CCOc1ccccc1NC(=O)CN1CCC(n2cnc3cc(F)ccc32)CC1 | 4 µM
CC1(C)Cc2c(sc(NC(=O)C(=O)NCCN3CCOCC3)c2C(N)=O)CO1 | 1.34 µM
COc1ccc(OC)c(NC(=O)CN2CCC(n3c(C)nc4cc(F)ccc43)CC2)c1 | inactive
COc1ccc(NC(=O)CN2CCC(n3c(C)nc4cc(F)ccc43)CC2)c(OC)c1 | > 100 µM (inactive)
